Experimental data: patent publication US20240116985A1, “STAPLED PEPTIDES AND METHODS THEREOF” (priority 2020, published 2024)

What was measured:
[1] = molecular target: T1, full-length beta-Catenin (Uniprot ID P35222) (Homo sapiens, UniProt P35222); assay: Fluorescence polarization IC50 (beta-catenin / 5FAM-TCF4 10-53 competition); assay type: binding; details: fluorescence polarization; read-out: beta-Catenin FP IC50
T1 construct: 10 nM full-length beta-Catenin (Uniprot ID P35222)
T1 sequence (P35222 1-781): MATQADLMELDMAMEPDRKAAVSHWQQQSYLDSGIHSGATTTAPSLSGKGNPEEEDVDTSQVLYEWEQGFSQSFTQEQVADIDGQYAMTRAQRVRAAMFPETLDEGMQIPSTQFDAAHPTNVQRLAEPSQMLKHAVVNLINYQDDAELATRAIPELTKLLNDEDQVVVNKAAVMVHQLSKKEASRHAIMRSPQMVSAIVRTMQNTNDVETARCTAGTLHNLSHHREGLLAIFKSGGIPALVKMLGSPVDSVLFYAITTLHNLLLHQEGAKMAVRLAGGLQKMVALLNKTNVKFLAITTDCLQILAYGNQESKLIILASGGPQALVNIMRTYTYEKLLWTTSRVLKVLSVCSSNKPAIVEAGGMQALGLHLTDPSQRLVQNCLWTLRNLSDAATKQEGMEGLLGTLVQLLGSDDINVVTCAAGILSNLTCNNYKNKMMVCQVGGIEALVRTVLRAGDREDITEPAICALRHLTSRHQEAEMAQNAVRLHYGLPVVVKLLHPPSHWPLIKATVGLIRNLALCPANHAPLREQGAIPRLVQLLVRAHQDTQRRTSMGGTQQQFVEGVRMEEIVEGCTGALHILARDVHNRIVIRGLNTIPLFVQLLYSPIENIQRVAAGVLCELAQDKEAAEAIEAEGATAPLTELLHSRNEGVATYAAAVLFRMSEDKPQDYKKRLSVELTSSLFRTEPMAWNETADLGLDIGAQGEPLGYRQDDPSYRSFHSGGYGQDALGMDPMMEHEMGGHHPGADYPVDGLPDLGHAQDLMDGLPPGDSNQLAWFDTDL

[2] = molecular target: T2, beta-catenin/TCF4 engagement (Homo sapiens, UniProt P35222); assay: Nano-BRET target engagement assay (B-cat-Halo & TCF4-Luc in HEK293 cells); assay type: cell-based; details: absolute IC50; read-out: NanoBRET Abs IC50
T2 construct: expressed in transfected cells; host or cells: HEK293
T2 sequence (P35222 1-781): T1 sequence (P35222 1-781)

Row | SMILES | IC50 [1] | IC50 [2]
1 | CC(=O)N1CCC[C@]12CC=CCCCC1(CCCC=CCCCOC(=O)N3CC[C@@](C(=O)N[C@@H](Cc4ccsc4)C(=O)N[C@@H](Cc4csc5ccccc45)C(=O)N[C@@H](CCC(N)=O)C(N)=O)(C3)NC(=O)[C@H](CCO)NC(=O)[C@H](Cc3ccccc3)NC(=O)[C@H](C)NC(=O)[C@H](C)NC(=O)[C@H](Cc3c(F)c(F)c(F)c(F)c3F)NC(=O)[C@H](CC(=O)O)NC1=O)NC(=O)[C@H](CC(C)(C)C)NC(=O)[C@H](CC(=O)O)NC2=O (stereo partly drawn) [I-1791, Ac-PL3-Asp-Npg-B5-Asp-Pff-Ala-Ala-Phe-Hse-PyrS2-3Thi-BztA-Gln-NH2] | 182 nM | > 20000 nM
2 | CC(=O)N1CCC[C@]12CC=CCCCC1(CCCC=CCCCOC(=O)N3CC[C@@](C(=O)N[C@@H](Cc4ccsc4)C(=O)N[C@@H](Cc4csc5ccccc45)C(=O)N[C@@H](CCC(N)=O)C(N)=O)(C3)NC(=O)[C@H](CCO)NC(=O)[C@H](Cc3ccccc3)NC(=O)[C@H](C)NC(=O)[C@H](C)NC(=O)[C@H](Cc3c[nH]cn3)NC(=O)[C@H](CC(=O)O)NC1=O)NC(=O)[C@H](CC(C)(C)C)NC(=O)[C@H](CC(=O)O)NC2=O (stereo partly drawn) [I-1793, Ac-PL3-Asp-Npg-B5-Asp-His-Ala-Ala-Phe-Hse-PyrS2-3Thi-BztA-Gln-NH2] | 20 nM | > 20000 nM
3 | CC(=O)N1CCC[C@]12CC=CCCCC1(CCCC=CCCCOC(=O)N3CC[C@@](C(=O)N[C@@H](Cc4ccsc4)C(=O)N[C@@H](Cc4csc5ccccc45)C(=O)N[C@@H](CCC(N)=O)C(N)=O)(C3)NC(=O)[C@H](CCO)NC(=O)[C@H](Cc3ccccc3)NC(=O)[C@H](C)NC(=O)[C@H](C)NC(=O)[C@H](Cc3c[nH]cn3)NC(=O)[C@H](CC(=O)O)NC1=O)NC(=O)[C@H](CC(C)(C)C)NC(=O)[C@H](CC(=O)O)NC2=O (stereo partly drawn) [I-1794, Ac-PL3-Asp-Npg-B5-Asp-His-Ala-Ala-Phe-Hse-PyrS2-3Thi-BztA-Gln-NH2] | 52 nM | 37700 nM
4 | CC(=O)N1CCC[C@]12CC=CCCCC1(CCCC=CCCCOC(=O)N3CC[C@@](C(=O)N[C@@H](Cc4ccsc4)C(=O)N[C@@H](Cc4csc5ccccc45)C(=O)N[C@@H](CCC(N)=O)C(N)=O)(C3)NC(=O)[C@H](CC(C)C)NC(=O)[C@H](Cc3ccccc3)NC(=O)[C@H](C)NC(=O)[C@H](C)NC(=O)[C@H](Cc3c[nH]cn3)NC(=O)[C@H](CC(=O)O)NC1=O)NC(=O)[C@H](CC(C)(C)C)NC(=O)[C@H](CC(=O)O)NC2=O (stereo partly drawn) [I-1796, Ac-PL3-Asp-Npg-B5-Asp-His-Ala-Ala-Phe-Leu-PyrS2-3Thi-BztA-Gln-NH2] | 22 nM | > 20000 nM
5 | CC(=O)N1CCC[C@]12CC=CCCCC1(CCCC=CCCCOC(=O)N3CC[C@@](C(=O)N[C@@H](Cc4ccsc4)C(=O)N[C@@H](Cc4csc5ccccc45)C(=O)N[C@@H](CCC(=O)N4CCC(N5CCCCC5)CC4)C(N)=O)(C3)NC(=O)[C@H](CC(C)C)NC(=O)[C@H](Cc3ccccc3)NC(=O)[C@H](C)NC(=O)[C@H](C)NC(=O)[C@H](CN(CC(=O)O)CC(F)(F)F)NC(=O)[C@H](CC(=O)O)NC1=O)NC(=O)[C@H](CC(C)(C)C)NC(=O)[C@H](CC(=O)O)NC2=O (stereo partly drawn) [I-1797, Ac-PL3-Asp-Npg-B5-Asp-TfeGA-Ala-Ala-Phe-Leu-PyrS2-3Thi-BztA-[4Pippip]GlnR-NH2] | 10 nM | 22500 nM
6 | CC(=O)N1CCC[C@]12CC=CCCCC1(CCCC=CCCCOC(=O)N3CC[C@@](C(=O)N[C@@H](Cc4ccsc4)C(=O)N[C@@H](Cc4csc5ccccc45)C(=O)N[C@@H](CCC(=O)N4CCN(CCCN(C)C)CC4)C(N)=O)(C3)NC(=O)[C@H](CC(C)C)NC(=O)[C@H](Cc3ccccc3)NC(=O)[C@H](C)NC(=O)[C@H](C)NC(=O)[C@H](CN(CC(=O)O)CC(F)(F)F)NC(=O)[C@H](CC(=O)O)NC1=O)NC(=O)[C@H](CC(C)(C)C)NC(=O)[C@H](CC(=O)O)NC2=O (stereo partly drawn) [I-1799, Ac-PL3-Asp-Npg-B5-Asp-TfeGA-Ala-Ala-Phe-Leu-PyrS2-3Thi-BztA-[Me2NPrPip]GlnR-NH2] | 8 nM | 25800 nM
7 | CC(=O)N1CCC[C@]12CC=CCCCC1(CCCC=CCCCOC(=O)N3CC[C@@](C(=O)N[C@@H](Cc4ccsc4)C(=O)N[C@@H](Cc4csc5ccccc45)C(=O)N[C@@H](CCC(=O)N4CCN(CCCN(C)C)CC4)C(N)=O)(C3)NC(=O)[C@H](CC(C)C)NC(=O)[C@H](Cc3ccccc3)NC(=O)[C@H](C)NC(=O)[C@H](C)NC(=O)[C@H](CN(CC(=O)O)CC(F)(F)F)NC(=O)[C@H](CC(=O)O)NC1=O)NC(=O)[C@H](CC(C)(C)C)NC(=O)[C@H](CC(=O)O)NC2=O (stereo partly drawn) [I-1800, Ac-PL3-Asp-Npg-B5-Asp-TfeGA-Ala-Ala-Phe-Leu-PyrS2-3Thi-BztA-[Me2NPrPip]GlnR-NH2] | 13 nM | 25200 nM
8 | CC(=O)N1CCC[C@]12CC=CCCCC1(CCCC=CCCCOC(=O)N3CC[C@@](C(=O)N[C@@H](Cc4ccsc4)C(=O)N[C@@H](Cc4csc5ccccc45)C(=O)N[C@@H](CCC(=O)N4CC[C@@H](N(C)C)C4)C(N)=O)(C3)NC(=O)[C@H](CC(C)C)NC(=O)[C@H](Cc3ccccc3)NC(=O)[C@H](C)NC(=O)[C@H](C)NC(=O)[C@H](CN(CC(=O)O)CC(F)(F)F)NC(=O)[C@H](CC(=O)O)NC1=O)NC(=O)[C@H](CC(C)(C)C)NC(=O)[C@H](CC(=O)O)NC2=O (stereo partly drawn) [I-1804, Ac-PL3-Asp-Npg-B5-Asp-TfeGA-Ala-Ala-Phe-Leu-PyrS2-3Thi-BztA-[RDMAPyr]GlnR-NH2] | 8 nM | 9400 nM

Further lines, results first:

Row | IC50 [1] | IC50 [2] | SMILES
9 | 7 nM | 17500 nM | CC(=O)N1CCC[C@]12CC=CCCCC1(CCCC=CCCCOC(=O)N3CC[C@@](C(=O)N[C@@H](Cc4ccsc4)C(=O)N[C@@H](Cc4csc5ccccc45)C(=O)N[C@@H](CCC(=O)N4CCC(N5CCN(C)CC5)CC4)C(N)=O)(C3)NC(=O)[C@H](CC(C)C)NC(=O)[C@H](Cc3ccccc3)NC(=O)[C@H](C)NC(=O)[C@H](C)NC(=O)[C@H](CN(CC(=O)O)CC(F)(F)F)NC(=O)[C@H](CC(=O)O)NC1=O)NC(=O)[C@H](CC(C)(C)C)NC(=O)[C@H](CC(=O)O)NC2=O (stereo partly drawn) [I-1801, Ac-PL3-Asp-Npg-B5-Asp-TfeGA-Ala-Ala-Phe-Leu-PyrS2-3Thi-BztA-[4MePpzPip]GlnR-NH2]
10 | 11 nM | 25200 nM | CC(=O)N1CCC[C@]12CC=CCCCC1(CCCC=CCCCOC(=O)N3CC[C@@](C(=O)N[C@@H](Cc4ccsc4)C(=O)N[C@@H](Cc4csc5ccccc45)C(=O)N[C@@H](CCC(=O)N4CCC(N5CCN(C)CC5)CC4)C(N)=O)(C3)NC(=O)[C@H](CC(C)C)NC(=O)[C@H](Cc3ccccc3)NC(=O)[C@H](C)NC(=O)[C@H](C)NC(=O)[C@H](CN(CC(=O)O)CC(F)(F)F)NC(=O)[C@H](CC(=O)O)NC1=O)NC(=O)[C@H](CC(C)(C)C)NC(=O)[C@H](CC(=O)O)NC2=O (stereo partly drawn) [I-1802, Ac-PL3-Asp-Npg-B5-Asp-TfeGA-Ala-Ala-Phe-Leu-PyrS2-3Thi-BztA-[4MePpzPip]GlnR-NH2]
11 | 20 nM | 7400 nM | CC(=O)N1CCC[C@]12CC=CCCCC1(CCCC=CCCCOC(=O)N3CC[C@@](C(=O)N[C@@H](Cc4ccsc4)C(=O)N[C@@H](Cc4csc5ccccc45)C(=O)N[C@@H](CCC(=O)N4CCN(CC(F)(F)F)CC4)C(N)=O)(C3)NC(=O)[C@H](CC(C)C)NC(=O)[C@H](Cc3ccccc3)NC(=O)[C@H](C)NC(=O)[C@H](C)NC(=O)[C@H](CN(CC(=O)O)CC(F)(F)F)NC(=O)[C@H](CC(=O)O)NC1=O)NC(=O)[C@H](CC(C)(C)C)NC(=O)[C@H](CC(=O)O)NC2=O (stereo partly drawn) [I-1803, Ac-PL3-Asp-Npg-B5-Asp-TfeGA-Ala-Ala-Phe-Leu-PyrS2-3Thi-BztA-[TfePpz]GlnR-NH2]
